In publication PMC8752738, “A propolis-derived small molecule ameliorates metabolic syndrome in obese mice by targeting the CREB/CRTC2 transcriptional complex” (Nature Communications, 2022):
Several values for one entry are separate records, joined by “and”; a condition that tells them apart may be missing. Equal entries are not always repeated.

Tested on: tissue mRNA levels
Test: Quantitative PCR of tissue gene expression in treated mice
Type: in vivo, mouse
Parameters: key to mRNA levels Scap / mRNA levels Insig1 / mRNA levels Ldlr / mRNA levels Mttp / mRNA levels Atgl / mRNA levels Tnfaip2 / mRNA levels Rxra / mRNA levels Srebf1 / mRNA levels Ucp2: mRNA level normalized to ribosomal L32 mRNA (internal control)
Details: for relative mRNA levels SREBP1a, group mean (Mean 2) / relative mRNA levels SREBP2, group mean (Mean 2) / relative mRNA levels SREBP1c, group mean (Mean 2) / relative mRNA levels Srebf-1a / relative mRNA levels Srebf-1c / relative mRNA levels Srebf-2: Figure 6a; for relative mRNA levels SREBP1a, group mean (Mean 2) / relative mRNA levels SREBP2, group mean (Mean 2) / relative mRNA levels SREBP1c, group mean (Mean 2): N=6; for relative mRNA levels SREBP1a, group mean (Mean 2): VEH mean 0.9485; for relative mRNA levels SREBP2, group mean (Mean 2): VEH mean 1.001; for relative mRNA levels SREBP1c, group mean (Mean 2): VEH mean 1.004; for relative mRNA levels Srebf-1a / relative mRNA levels Srebf-1c / relative mRNA levels Srebf-2: relative to VEH
Method: Total RNA from cells and tissues was extracted by Trizol (Invitrogen) and reverse-transcribed into cDNA using the prime script RT reagent kit with gDNA eraser (Takara). The mRNA levels were determined using the SYBR-green PCR kit (Takara) with ABIPRISM 7900HT Sequence detector (ABI) according to the manufacturer’s protocol. The quantitative qPCR primers used in this work are listed in Supplementary Table 1. Ribosomal L32 mRNA levels were used as an internal control.

[1] = DIO mice, i.p. 20 mg/kg, 5 weeks
[2] = APC 10mg/kg, individual animals
[3] = APC 20mg/kg, individual animals
[4] = Figure 6c, liver of DIO mice, individual animals

Q: For `CC(C)=CCc1cc(C=CC(=O)O)cc(CC=C(C)C)c1O` [APC, 3,5-diprenyl-4-hydroxycinnamic acid], which “mRNA levels of CREB/CRTC2 regulated genes in muscle, brain, spleen, kidney, small intestine, pancreas” value (C57 WT mice, one oral dose 20 mg/kg) is on record?
A: The value was “did not significantly affect”.

Q: And the “Mean Diff. (Veh. vs. treated; head of the quantity not shown, section just before Figure 7h)” value (CRTC2KO mice, Met 200mg/kg or APC-20)?
A: Its value is -0.1036.

Q: What about the “hepatic mRNA levels of G6pc, Pck1 and Pgc-1α” value (DIO and db/db mice, i.p. 20 mg/kg, 5 weeks) of the same molecule?
A: Its value is “remarkably reduced”.

Q: And the “Pgc-1α and Pgc-1β expression in liver, white and brown adipose tissues” value (DIO mice)?
A: Its value is “significantly reduced”.

Q: And the “hepatic mRNA levels of SREBP target genes” value (DIO mice)?
A: Its value is “reduced”.

Q: And the “liver mRNA levels of Lxra” value [1]?
A: Its value is “decreased”.

Q: And the “liver mRNA levels of Pparα, Pparγ and Rxrα” value [1]?
A: Its value is “little effect”.

Q: And the “hepatic mRNA levels of Srebp-1a, 1c and 2” value (DIO mice, i.p. 5 weeks)?
A: Its value is “significantly decreased”.

Q: What about the “relative mRNA levels SREBP1a, group mean (Mean 2)” value (APC 10mg/kg) of the same molecule?
A: Its value is 0.6192.

Q: And the “relative mRNA levels SREBP2, group mean (Mean 2)” value (APC 10mg/kg)?
A: Its value is 0.7198.

Q: What about the “relative mRNA levels SREBP1c, group mean (Mean 2)” value (APC 10mg/kg) of the same molecule?
A: The value was 0.5199.

Q: And the “relative mRNA levels Srebf-1a” value [2]?
A: Its value is 0.7632 and 0.606 and 0.6752 and 0.5408 and 0.5316 and 0.5987.

Q: What about the “relative mRNA levels Srebf-1c” value [2] of the same molecule?
A: Its value is 0.3899 and 0.7333 and 0.3575 and 0.4477 and 0.6292 and 0.5618.

Q: And the “relative mRNA levels Srebf-2” value [2]?
A: The value was 0.89 and 0.7028 and 0.7151 and 0.6142 and 0.6241 and 0.7725.

Q: And the “relative mRNA levels SREBP1a, group mean (Mean 2)” value (APC 20mg/kg)?
A: Its value is 0.576.

Q: What about the “relative mRNA levels SREBP2, group mean (Mean 2)” value (APC 20mg/kg) of the same molecule?
A: The value was 0.6534.

Q: What about the “relative mRNA levels SREBP1c, group mean (Mean 2)” value (APC 20mg/kg) of the same molecule?
A: Its value is 0.4898.

Q: What about the “relative mRNA levels Srebf-1a” value [3] of the same molecule?
A: Its value is 0.7402 and 0.4743 and 0.5973 and 0.6221 and 0.5888 and 0.4336.

Q: And the “relative mRNA levels Srebf-1c” value [3]?
A: Its value is 0.4905 and 0.5691 and 0.5139 and 0.3623 and 0.4504 and 0.5527.

Q: What about the “relative mRNA levels Srebf-2” value [3] of the same molecule?
A: Its value is 0.7803 and 0.8192 and 0.5739 and 0.6729 and 0.5114 and 0.5627.

Q: What about the “mRNA levels Pgc-1a, Mean of APC” value (Figure 6c, liver of DIO mice, group mean, Mean of VEH 0.9497) of the same molecule?
A: The value was 0.7169.

Q: And the “mRNA levels Hmgcs, Mean of APC” value (Figure 6c, liver of DIO mice, group mean, Mean of VEH 0.9581)?
A: Its value is 0.6963.

Q: And the “mRNA levels Pgc-1b, Mean of APC” value (Figure 6c, liver of DIO mice, group mean, Mean of VEH 0.9596)?
A: The value was 0.6511.

Q: What about the “mRNA levels Acl, Mean of APC” value (Figure 6c, liver of DIO mice, group mean, Mean of VEH 0.9821) of the same molecule?
A: The value was 0.5548.

Q: What about the “mRNA levels Insig1, Mean of APC” value (Figure 6c, liver of DIO mice, group mean, Mean of VEH 0.983) of the same molecule?
A: The value was 1.256.

Q: What about the “mRNA levels Ldlr, Mean of APC” value (Figure 6c, liver of DIO mice, group mean, Mean of VEH 0.9914) of the same molecule?
A: The value was 0.5526.

Q: And the “mRNA levels ApoE, Mean of APC” value (Figure 6c, liver of DIO mice, group mean, Mean of VEH 0.9918)?
A: Its value is 0.7552.

Q: What about the “mRNA levels Acsl1, Mean of APC” value (Figure 6c, liver of DIO mice, group mean, Mean of VEH 0.995) of the same molecule?
A: The value was 0.6996.

Q: What about the “mRNA levels Insig2b, Mean of APC” value (Figure 6c, liver of DIO mice, group mean, Mean of VEH 1.003) of the same molecule?
A: The value was 1.315.

Q: What about the “mRNA levels Lxra, Mean of APC” value (Figure 6c, liver of DIO mice, group mean, Mean of VEH 1.007) of the same molecule?
A: The value was 0.5396.

Q: And the “mRNA levels Cel, Mean of APC” value (Figure 6c, liver of DIO mice, group mean, Mean of VEH 1.031)?
A: The value was 2.279.

Q: And the “mRNA levels Acc, Mean of APC” value (Figure 6c, liver of DIO mice, group mean, Mean of VEH 1.033)?
A: Its value is 0.6639.

Q: What about the “mRNA levels Pcsk9, Mean of APC” value (Figure 6c, liver of DIO mice, group mean, Mean of VEH 1.034) of the same molecule?
A: Its value is 0.8062.

Q: What about the “mRNA levels Cpt1, Mean of APC” value (Figure 6c, liver of DIO mice, group mean, Mean of VEH 1.037) of the same molecule?
A: Its value is 2.106.

Q: What about the “mRNA levels Mttp, Mean of APC” value (Figure 6c, liver of DIO mice, group mean, Mean of VEH 1.041) of the same molecule?
A: The value was 0.553.

Q: What about the “mRNA levels Scd1, Mean of APC” value (Figure 6c, liver of DIO mice, group mean, Mean of VEH 1.044) of the same molecule?
A: The value was 1.532.

Q: And the “mRNA levels Lipg, Mean of APC” value (Figure 6c, liver of DIO mice, group mean, Mean of VEH 1.051)?
A: The value was 1.548.

Q: What about the “mRNA levels ApoB, Mean of APC” value (Figure 6c, liver of DIO mice, group mean, Mean of VEH 1.052) of the same molecule?
A: The value was 0.8089.

Q: And the “mRNA levels Hmgcl, Mean of APC” value (Figure 6c, liver of DIO mice, group mean, Mean of VEH 1.059)?
A: The value was 0.5112.

Q: And the “mRNA levels Scap, Mean of APC” value (Figure 6c, liver of DIO mice, group mean, Mean of VEH 1.06)?
A: The value was 0.7595.

Q: What about the “mRNA levels Mgll, Mean of APC” value (Figure 6c, liver of DIO mice, group mean, Mean of VEH 1.072) of the same molecule?
A: The value was 1.87.

Q: And the “mRNA levels Fasn, Mean of APC” value (Figure 6c, liver of DIO mice, group mean, Mean of VEH 1.142)?
A: The value was 0.5649.

Q: What about the “mRNA levels Acc” value [4] of the same molecule?
A: The value was 0.6012 and 0.6553 (2×) and 0.7255 and 0.7608 and 0.5855.

Q: What about the “mRNA levels Acl” value [4] of the same molecule?
A: The value was 0.303 and 0.3204 and 0.7174 and 0.7065 and 0.7574 and 0.524.

Q: What about the “mRNA levels Acsl1” value [4] of the same molecule?
A: Its value is 0.5351 and 0.5673 and 0.8699 and 0.7501 and 0.6417 and 0.8334.

Q: And the “mRNA levels ApoB” value [4]?
A: The value was 0.8489 and 0.8438 and 0.8351 and 0.7306 and 0.803 and 0.7922.

Q: What about the “mRNA levels ApoE” value [4] of the same molecule?
A: The value was 0.7234 and 0.6714 and 0.8902 and 0.7927 and 0.794 and 0.6594.

Q: What about the “mRNA levels Cel” value [4] of the same molecule?
A: Its value is 1.61 and 1.758 and 2.648 and 2.653 and 2.573 and 2.434.

Q: And the “mRNA levels Cpt1” value [4]?
A: Its value is 2.1427 and 2.6 and 2.578 and 1.766 and 1.996 and 1.554.

Q: What about the “mRNA levels Fasn” value [4] of the same molecule?
A: The value was 0.5582 and 0.6145 and 0.8825 and 0.8943 and 0.221 and 0.219.

Q: What about the “mRNA levels Hmgcl” value [4] of the same molecule?
A: Its value is 0.8031 and 0.3302 and 0.7226 and 0.5347 and 0.468 and 0.2089.

Q: And the “mRNA levels Hmgcs” value [4]?
A: The value was 0.6002 and 0.7721 and 0.6122 and 0.7412 and 0.7304 and 0.7219.

Q: What about the “mRNA levels Insig1” value [4] of the same molecule?
A: The value was 1.154 and 1.297 and 1.198 and 1.324 and 1.22 and 1.341.
